Test results: patent US20090137517A1, “SENSITIZING A CELL TO CANCER TREATMENT BY MODULATING THE ACTIVITY OF A NUCLEIC ACID ENCODING RPS27L PROTEIN” (Agency for Science, Technology and Research, priority 2006, published 2009)

Assays:
Type in all cases: cell-based, human
p21 = assay: Immunoblot of p21 in U2OS cells with transient RPS27L knockdown; settings: RPS27L knocked down by transient transfection, ADR (1 μM) 24 hours
Protocol: (§1) As RPS27L depletion sensitizes only p53 wild-type cells to DNA damage, the inventors next assessed the effect of RPS27L loss on p53 signaling pathway. The effects of RPS27L depletion on p53 and its downstream targets p21, puma and MDM2 was examined by immunoblot analysis. […] By contrast, p53-dependent activation of Puma and MDM2 were not decreased upon RPS27L loss.
(§2) Cells were harvested and lysed with RIPA buffer (50 mM Tris-HCl, pH7.4, 1 mM EDTA, 150 mM NaCl, 1% Nonidet P-40, 0.5% sodium deoxycholate and proteinase inhibitors). The lysates were clarified by centrifugation at 16,000×g for 15 minutes at 4° C. Protein concentrations were determined with the Bradford Protein Assay Kit (Bio-Rad). 20-50 μg protein samples were separated by SDS-PAGE, transferred onto an Immobilon membrane (Millipore) and blotted with antibodies. Anti-p53 and anti-p21 antibodies were from Santa Cruz; anti-MDM2 and anti-Puma antibodies were from Merck. The rabbit polyconal antibody to RPS27L was raised against a 14 amino acid peptide from human RPS27L (SEQ ID NO: 2: LHPSLEEEKKKHKK).

HCT116 cells [1] = assay: JC-1 staining, mitochondrial membrane potential by flow cytometry; settings: control HCT116 cells, ADR treatment
Protocol: To further define the nature of this cell death response the inventors used another assay, namely flow cytometric detection of cells stained with JC-1. The JC-1-staining identifies cell death events as a result of loss of mitochondria membrane potential (ΔΨm).
(§3) Cells cycle analysis was performed by DNA content quantification. The cells were fixed with 70% ethanol and stained with propidium iodide (50 μg/ml) staining. The stained cells were analyzed by FACScalibur (BD Bioscience). For the BrdU incorporation assay and mitochondrial membrane potential detection, the BrdU Flow Kit and JC-1 staining kit (both from BD Bioscience) were used, respectively, following the instruction manual. Stained cells were analyzed by FACScalibur (BD Bioscience) and quantified by using CellQuest software (BD Bioscience).

p53 and p21 = assay: Western blot of p53 and p21 protein levels in HCT116 cells; settings: ADR (1 μM), 5-FU (375 μM), nutlin-3 (10 μM)
Protocol: (§4) To investigate whether the p53-induced increase in RPS27L mRNA also gives rise to the increased protein levels, immunoblot analysis of p53 wild-type and p53 null HCT116 cells treated with ADR, 5-FU or nutlin-3, a small molecule MDM2 antagonist that directly activates p53 (Vassilev, L. T., Vu, B. T., et al. (2004) “In vivo activation of the p53 pathway by small-molecule antagonists of MDM2” Science, vol. 303, p. 844-848) was performed. […] To extend this observations to other cell lines and to other p53 stimuli, U2OS (human osteosarcoma cell line) and SH-SY5Y (human neuroblastoma cell line) cells (p53 wild type) as well as Saos-2 cells (human osteosarcoma cell line, p53-deficient) were treated with ADR, etoposide phosphate (VP16®) and 5-FU (FIG. 2B). […] Obviously, 5-FU treatment activates a posttranslational mechanism that causes RPS27L protein downregulation in spite of the increased mRNA expression.
as §2

HCT116 cells [2] = assay: BrdU incorporation / 7-amino-actinomycin D FACS analysis; settings: for cells with a hyperploid DNA content (>4.v): ADR 24 hours
Protocol: Given the increased sensitivity to DNA damage upon RPS27L depletion, the inventors next investigated whether loss of RPS27L could impair the DNA damage checkpoint. […] However, parental cells underwent a dramatic decrease in DNA synthesis (from 85% to 11%) 24 hours after ADR treatment, whereas in HCT116 cells lacking RPS27L, this decrease in DNA synthesis was partially rescued (from 86% to 27%) (FIG. 5A).
as §3

RPS27L mRNA = assay: RT-PCR of RPS27L mRNA after drug treatment of HCT116 cells; settings: p53 wild-type HCT116 cells; ADR (1 μM) or 5-FU (375 μM); not in p53 null cells
Text: FIG. 1A depicts the microarray analysis showing a set of genes whose expression was induced by the DNA damaging agents adriamycin (ADR) and 5-fluorouracil (5-FU) in p53 wild-type HCT116 cells (human colorectal carcinoma cell line containing wild type p53) but not in the p53 null counterpart. In both treatments, RPS27L, together with bona fide p53 targets such as cdkn1a (encodes p21), Pmaid (encodes Noxa) and ccd3 (encodes Puma), was unregulated in a p53-dependent manner. To validate the microarray data, RT-PCR analysis was performed (FIG. 1B).
The human colon carcinoma cell line HCT116 and its p53 knock-out derivate cells were kindly provided by Dr. Bert Vogelstein. HCT116 cells can also be purchased under the ATCC number: CCL 247. The human osteosarcoma cell lines U2OS and Saos-2 can be purchased under the following ATCC numbers: U2OS, ATCC HTB-96; Saos-2, ATCC HTB-85 and SH-SY5Y, ATCC CRL-2266. Cells were grown in DMEM supplemented with 10% fetal bovine serum and penicillin-streptomycin (Invitrogen). Adriamycin, etoposide phosphate (VP16®) and 5-fluorouracil were purchased from Sigma-Aldrich.
All RT-PCR was performed using the Titanium One Step RT-PCR Kit (BD Clontech).

RPS27L protein [3] = assay: Western blot of RPS27L protein in U2OS, SH-SY5Y and Saos-2 cells; settings: U2OS and SH-SY5Y (p53 wild type), Saos-2 (p53-deficient); VP16 (10 μM), ADR (1 μM), 5-FU (375 μM)
Protocol: as §4, §2

RPS27L protein [4] = assay: Western blot of RPS27L protein levels in HCT116 cells; settings: ADR (1 μM), 5-FU (375 μM), nutlin-3 (10 μM)
Protocol: as §4, §2

HCT116 cells [5] = assay: Cell cycle and apoptosis analysis by flow cytometry (sub-G1 DNA content)
Protocol: as §3

[6] = test system: p53 and its downstream targets p21, puma and MDM2; assay: Immunoblot of p53 and its targets in control and RPS27L-depleted HCT116 cells; settings: RPS27L-depleted versus control HCT116 cells
Protocol: as §1, §2

HCT116 cells [7] = assay: Alkaline single cell gel electrophoresis (comet) assay; settings: RPS27L-depleted versus control HCT116 cells, ADR 24 h
Protocol: In order to examine DNA damage directly, the comet assay was used next. […] Cells were incubated with ADR for 24 h and were harvested and processed for the comet assay.
The treated cells were subjected to a single cell gel electrophoresis (comet) assay as described earlier (Poonepalli, A., Balakrishnan, L., et al. (2005), supra) and stained with SYBR green dye. The tail moment of the comets was generated using the Metasystems (Germany) analysis software ‘Comet imager version 1.2’. Fifty randomly chosen comets were analyzed per sample. The extent of DNA damage observed was expressed as tail moment, which corresponded to the fraction of the DNA in the tail of the comet.

## COc1cccc2c1C(=O)c1c(O)c3c(c(O)c1C2=O)C[C@@](O)(C(=O)CO)C[C@@H]3O[C@H]1C[C@H](N)[C@H](O)[C@H](C)O1 [ADR, adriamycin]
p21
  p21 protein level: substantial decrease
HCT116 cells [1]
  percentage of cells with lower membrane potential (ΔΨm): 13.5%
p53 and p21
  p53 and p21 protein: accumulation of p53 and p21
HCT116 cells [2]; HCT116 cells lacking RPS27L, 24 hours after ADR treatment (86% before)
  DNA synthesis (BrdU, cells in S-phase): 27%
HCT116 cells [2]; RPS27L-depleted HCT116 cells
  cells with a hyperploid DNA content (>4.v): 30%
HCT116 cells [2]; control HCT116 cells
  cells with a hyperploid DNA content (>4.v): 10.5%
HCT116 cells [2]; p21-depleted HCT116 cells after ADR treatment
  hyperploid population: no increased hyperploid population
HCT116 cells [2]; parental (control) HCT116 cells, 24 hours after ADR treatment (85% before)
  DNA synthesis (BrdU, cells in S-phase): 11%
RPS27L mRNA
  RPS27L mRNA: induced
RPS27L protein [3]
  RPS27L protein level: p53-dependent upregulation of RPS27L protein
RPS27L protein [4]
  RPS27L protein level: increased RPS27L protein levels
HCT116 cells [5]; HCT116 p53+/+ and p53−/−, ADR (1 μM) or 5-FU (375 μM) for 48 h
  cell cycle and apoptosis response: p53-dependent cell cycle arrest
HCT116 cells [5]; RPS27L depletion in p53 null HCT116 cells, ADR 48 h
  cell death (sub-G1 DNA content): did not give rise to the same result
HCT116 cells [5]; p53 wild-type HCT116 expressing control shRNA, ADR 48 h
  cellular response: growth arrest response
[6]; ADR (1 μM)
  p53-dependent activation of Puma and MDM2: not decreased
[6]; ADR (1 μM) 24 and 48 hours
  effect of RPS27L depletion on ADR-induced p53 activation: no significant effect
  p21 accumulation in response to ADR: significant reduced
HCT116 cells [7]
  DNA damage (comet tail moment): significantly enhanced
